Reference: PubChem BioAssay (NCI)
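These data come from cells grown in 96-well plates and exposed to compound for 48 hours at five concentrations. GI50: concentration for 50% inhibition of growth. At the TGI there is no net growth.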

Legend:
Experiment in all cases: DTP human tumour cell line panel, 48 h
[1] = system: BT-549 breast
[2] = system: OVCAR-8 ovarian
[3] = system: HOP-92 NSCLC
[4] = system: MDA-MB-435
[5] = system: SK-MEL-2 melanoma
[6] = system: K-562 leukemia
[7] = system: EKVX NSCLC
[8] = system: A498 renal
[9] = system: UACC-62 melanoma
[10] = system: SR leukemia

CC[N+](CC)=c1ccc2nc3c(cc(NCc4ccccc4)c4ccccc43)oc-2c1
GI50 [1]: 1.14 µM
TGI [1]: 2.51 µM
GI50 [2]: 0.362 µM
TGI [2]: 2.38 µM
GI50 [3]: 0.217 µM
TGI [3]: 1.33 µM
GI50 [4]: 0.18 µM
TGI [4]: 0.352 µM
GI50 [5]: 0.737 µM
TGI [5]: 2.25 µM
GI50 [6]: 0.121 µM
TGI [6]: 0.724 µM
GI50 [7]: 0.159 µM
TGI [7]: 0.944 µM
GI50 [8]: 0.751 µM
TGI [8]: 4.62 µM
GI50 [9]: 0.944 µM
TGI [9]: 2.52 µM
GI50 [10]: 0.27 µM
TGI [10]: 0.999 µM

Nc1c(C(=O)c2cccc(OCCN3CCOCC3)c2)cnn1-c1ccc(F)cc1
GI50 [1]: > 25 µM
TGI [1]: > 25 µM
GI50 [2]: > 25 µM
TGI [2]: > 25 µM
GI50 [3]: > 25 µM
TGI [3]: > 25 µM
GI50 [4]: > 25 µM
TGI [4]: > 25 µM
GI50 [5]: > 25 µM
TGI [5]: > 25 µM
GI50 [6]: > 25 µM
TGI [6]: > 25 µM
GI50 [8]: > 25 µM
TGI [8]: > 25 µM
GI50 [9]: > 25 µM
TGI [9]: > 25 µM
GI50 [10]: > 25 µM
TGI [10]: > 25 µM

C(CCc1nnc2c(n1)CCCC2)Cc1nnc2c(n1)CCCC2
TGI [1]: > 100 µM
TGI [2]: > 100 µM
TGI [3]: > 100 µM
TGI [4]: > 100 µM
TGI [5]: > 100 µM
TGI [6]: > 100 µM
TGI [7]: > 100 µM
TGI [8]: > 100 µM
TGI [9]: > 100 µM
TGI [10]: > 100 µM

COC(=O)c1c2c(c(C)[n+]([O-])c1C)C(=O)C=C(NCc1cccc(OC)c1)C2=O
GI50 [1]: 1.29 µM
TGI [1]: 2.65 µM
GI50 [2]: 0.29 µM
TGI [2]: 1.4 µM
GI50 [3]: 1.99 µM
TGI [3]: 4.7 µM
GI50 [4]: 0.178 µM
TGI [4]: 0.33 µM
GI50 [5]: 1.15 µM
TGI [5]: 2.78 µM
GI50 [6]: 0.37 µM
TGI [6]: 6.51 µM
GI50 [7]: 1.01 µM
TGI [7]: 2.26 µM
GI50 [8]: 1.31 µM
TGI [8]: 2.59 µM
GI50 [9]: 0.25 µM
TGI [9]: 1.07 µM
GI50 [10]: 0.561 µM
TGI [10]: 8.11 µM

Cc1cc(=O)oc2cc(OC(=O)Nc3ccc(Cl)c(Cl)c3)ccc12
TGI [1]: 61.5 µM
TGI [2]: 54.8 µM
TGI [3]: 43.4 µM
TGI [4]: 41.2 µM
TGI [5]: 56.1 µM
TGI [6]: 28.2 µM
TGI [7]: 85.2 µM
TGI [8]: 32.6 µM
TGI [9]: 35.1 µM
TGI [10]: 46.3 µM

CC(C)(C)OC(=O)NCCCCCCCCn1c2c(c3ccccc3c1=O)C(=O)c1ccccc1-2
GI50 [1]: 15.6 µM
TGI [1]: > 50 µM
GI50 [2]: 33.9 µM
TGI [2]: > 50 µM
GI50 [3]: 9.05 µM
TGI [3]: 21 µM
GI50 [4]: > 50 µM
TGI [4]: > 50 µM
GI50 [5]: 5.61 µM
TGI [5]: 19.9 µM
GI50 [6]: > 50 µM
TGI [6]: > 50 µM
GI50 [7]: 43.5 µM
TGI [7]: > 50 µM
GI50 [8]: 15.5 µM
TGI [8]: > 47.7 µM
GI50 [9]: 20.3 µM
TGI [9]: > 50 µM
GI50 [10]: > 34.8 µM
TGI [10]: > 50 µM

O=C(Oc1ccc([N+](=O)[O-])cc1)N1CCN(Cc2cccc(Oc3ccccc3)c2)CC1
GI50 [1]: 52 µM
TGI [1]: > 100 µM
GI50 [2]: > 100 µM
TGI [2]: > 100 µM
GI50 [3]: 18.2 µM
TGI [3]: > 100 µM
GI50 [4]: > 100 µM
TGI [4]: > 100 µM
GI50 [5]: > 67.1 µM
TGI [5]: > 100 µM
GI50 [6]: 34.1 µM
TGI [6]: > 100 µM
GI50 [7]: 48.6 µM
TGI [7]: > 100 µM
GI50 [8]: > 47.6 µM
TGI [8]: > 100 µM
GI50 [9]: 13.6 µM
TGI [9]: > 100 µM
GI50 [10]: 22.5 µM
TGI [10]: > 100 µM

COc1cc(/C=C/C(=O)c2cc(F)c(Cl)cc2Cl)cc(OC)c1OC
GI50 [1]: 53.2 µM
TGI [1]: > 100 µM
GI50 [2]: 15.8 µM
TGI [2]: 33.6 µM
GI50 [3]: 25.9 µM
TGI [3]: > 100 µM
GI50 [4]: 28.1 µM
TGI [4]: > 100 µM
GI50 [5]: 15.8 µM
TGI [5]: 58.7 µM
GI50 [6]: 11.4 µM
TGI [6]: 27.7 µM
GI50 [7]: > 100 µM
TGI [7]: > 100 µM
GI50 [8]: > 100 µM
TGI [8]: > 100 µM
GI50 [9]: 24.8 µM
TGI [9]: > 100 µM
GI50 [10]: 5.23 µM
TGI [10]: 39.1 µM

CN1CCN(c2ccc(-c3cnc4c(-c5csc6ccccc56)cnn4c3)cc2)CC1
GI50 [1]: 7.29 µM
TGI [1]: > 15 µM
GI50 [2]: 5.7 µM
TGI [2]: > 15 µM
GI50 [3]: > 15 µM
TGI [3]: > 15 µM
GI50 [4]: 11.7 µM
TGI [4]: > 15 µM
GI50 [5]: > 15 µM
TGI [5]: > 15 µM
GI50 [6]: 3.03 µM
TGI [6]: > 15 µM
GI50 [7]: 9.79 µM
TGI [7]: > 15 µM
GI50 [8]: 4.2 µM
TGI [8]: > 15 µM
GI50 [9]: > 15 µM
TGI [9]: > 15 µM
GI50 [10]: 3.03 µM
TGI [10]: > 15 µM

COc1cccc(/C=C/C(=O)c2ccc(Cl)cc2Cl)c1OC
GI50 [1]: 5.93 µM
TGI [1]: 20.2 µM
GI50 [2]: 3.73 µM
TGI [2]: 13.7 µM
GI50 [3]: 4.35 µM
TGI [3]: 19.5 µM
GI50 [4]: 5.51 µM
TGI [4]: 18.7 µM
GI50 [5]: 4.58 µM
TGI [5]: 17.4 µM
GI50 [6]: 2.39 µM
TGI [6]: 5.72 µM
GI50 [7]: 13.6 µM
TGI [7]: 31.8 µM
GI50 [8]: 16.2 µM
TGI [8]: 30.5 µM
GI50 [9]: 10.6 µM
TGI [9]: 24 µM
GI50 [10]: 2.28 µM
TGI [10]: 9.67 µM

NC(=O)c1[nH]nc(C2OC(CO)C(O)C2O)c1O (centres undefined)
TGI [1]: 1160 µM
TGI [2]: 212 µM
TGI [3]: 279 µM
TGI [4]: 469 µM
TGI [5]: 843 µM
TGI [6]: 2290 µM
TGI [7]: 1960 µM
TGI [8]: 444 µM
TGI [9]: 579 µM
TGI [10]: > 232 µM

Cc1ccc(N=C2CSc3nnc(-c4csc5c4CCCC5)n3N2)cc1
GI50 [1]: 0.458 µM
TGI [1]: > 50 µM
GI50 [2]: 0.223 µM
TGI [2]: > 50 µM
GI50 [3]: 1.97 µM
TGI [3]: > 50 µM
GI50 [4]: 0.0894 µM
TGI [4]: 0.237 µM
GI50 [5]: 0.221 µM
TGI [5]: > 50 µM
GI50 [6]: 0.156 µM
TGI [6]: > 50 µM
GI50 [7]: 0.209 µM
TGI [7]: > 50 µM
GI50 [8]: 0.0988 µM
TGI [8]: 0.412 µM
GI50 [9]: 0.277 µM
TGI [9]: > 50 µM
GI50 [10]: 0.179 µM
TGI [10]: > 50 µM

COc1ccc(C2NCCc3c2[nH]c2ccccc32)cc1CN1CCN(c2ccc(F)cc2)CC1 (centres undefined)
GI50 [1]: 7.55 µM
TGI [1]: 20 µM
GI50 [2]: 1.89 µM
TGI [2]: 3.95 µM
GI50 [3]: 2 µM
TGI [3]: 5.91 µM
GI50 [4]: 1.66 µM
TGI [4]: 3.06 µM
GI50 [5]: 2.14 µM
TGI [5]: 3.93 µM
GI50 [6]: 1.73 µM
TGI [6]: 4.09 µM
GI50 [8]: 0.399 µM
TGI [8]: 4.21 µM
GI50 [9]: 1.8 µM
TGI [9]: 3.32 µM
GI50 [10]: 1.78 µM
TGI [10]: 5.28 µM

COc1ncc(-c2nc3c(n2C(C)C)[C@H](c2ccc(Cl)cc2)N(c2cc(Cl)cn(C)c2=O)C3=O)c(OC)n1
GI50 [1]: 36.7 µM
TGI [1]: > 100 µM
GI50 [2]: 59.7 µM
TGI [2]: > 100 µM
GI50 [3]: 3.28 µM
TGI [3]: 52.6 µM
GI50 [4]: 35.3 µM
TGI [4]: > 100 µM
GI50 [5]: 46.3 µM
TGI [5]: > 100 µM
GI50 [7]: 36.6 µM
TGI [7]: > 100 µM
GI50 [8]: 19.2 µM
TGI [8]: 84.6 µM
GI50 [9]: 5.95 µM
TGI [9]: 28.4 µM
GI50 [10]: 6.14 µM
TGI [10]: 77.1 µM
